These results are taken from the supplement of paper PMC11061612.

Holding throughout (assay): Bliss excess, mean over the matrix (fraction); higher = more synergy
Assay [1] relates to KARPAS-1106P (B-Cell Non-Hodgkin's Lymphoma). The procedure, abridged: (§1)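 Cell lines in DMEM/F12 or RPMI with 10% FBS were plated in 1536-well plates, held 24 hours at 37°C, 5% CO2, then given two-drug dose matrices for 72 hours (DMSO typically 0.2%). Viability was read by CellTiter-Glo 2.0 luminescence and scaled as inhibition from 0 (vehicle wells) to 1 (blank wells). Combination Emax is the second-highest inhibition in the matrix; Bliss excess is observed combination effect minus expected EA + EB − EA·EB, EA and EB being single-agent effects.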

Assay [2] relates to DMS-273 (Small Cell Lung Carcinoma). The procedure, abridged: as §1
Assay [3] concerns SW756 (Cervical Carcinoma). The procedure, abridged:
as §1

Assay [4] deals with TGBC24TKB (Biliary Tract Carcinoma). Summed up:
as §1

Assay [5] has as its system TE-5 (Esophageal Squamous Cell Carcinoma). Summed up: as §1
Assay [6] relates to OCI-AML2 (Acute Myeloid Leukemia). Summed up:
as §1

For a further assay, the system named is CAL-78 (Chondrosarcoma). Summed up: as §1
Assay [7] deals with SNU-C5 (Colorectal Carcinoma). The procedure, abridged: as §1
In another assay the test system is NCI-H2595 (Mesothelioma). The procedure, abridged:
as §1

The next assay relates to DSH1 (Bladder Carcinoma). The procedure, abridged: as §1
In assay [8] the test system is MDA-MB-157 (Breast Carcinoma). Summed up: as §1
For assay [9], the system named is SUIT-2 (Pancreatic Carcinoma). Summed up:
as §1

Another assay has as its system ES7 (Ewing's Sarcoma). The procedure, abridged: as §1
For assay [10], the system named is 697 (B-Lymphoblastic Leukemia). Summed up: as §1
For the next assay, the system named is NCI-H2369 (Mesothelioma). Summed up:
as §1

Assay [11] has as its system C3A (Hepatocellular Carcinoma). The procedure, abridged:
as §1

For assay [12], the system named is CFPAC-1 (Pancreatic Carcinoma). The procedure, abridged:
as §1

Assay [13] deals with KM-H2 (Hodgkin's Lymphoma). Summed up:
as §1

The subject of another assay is SK-N-FI (Neuroblastoma). Summed up: as §1
The subject of another assay is SN12C (Kidney Carcinoma). Summed up:
as §1

For `COc1cccc(OCCCN)c1-c1cc(Nc2cnc(C#N)cn2)n[nH]1` [Prexasertib] + CN(C)CCCOc1ccc(-c2ccc3ncc4c(c3c2)n(C2CCOCC2)c(=O)n4C)cn1 [AZD0156] (first compound max 1 µM, 7x7, partner max 1 µM), the Bliss excess is -0.0308 in assay [1]; -0.0183 in assay [2]; -0.0179 in assay [3]; -0.0414 in [4]; 0.0016 in assay [5]; -0.0276 in [6]. Also, the Bliss excess with CAL-78 (Chondrosarcoma) is -0.0165; in [7], -0.0292; in the assay on NCI-H2595 (Mesothelioma), -0.0573; in the assay with DSH1 (Bladder Carcinoma), -0.0243; in assay [8], -0.0226; in assay [9] it was -0.0055. Besides, the Bliss excess with ES7 (Ewing's Sarcoma) was -0.0329; in [10], -0.0087; in the assay on NCI-H2369 (Mesothelioma), -0.0016; in assay [11] it was 0.0035; in assay [12], 0.0232; in assay [13], -0.0337. Moreover, the Bliss excess in the assay on SK-N-FI (Neuroblastoma) is -0.0168; in the assay on SN12C (Kidney Carcinoma) it was -0.0387.

In the case of `C[C@@H]1COCCN1c1cc(C2([S@](C)(=N)=O)CC2)nc(-c2ccnc3[nH]ccc23)n1` [AZD6738] + O=C(c1cc(Cc2n[nH]c(=O)c3ccccc23)ccc1F)N1CCN(C(=O)C2CC2)CC1 [Olaparib] (first compound max 10 µM, 7x7, partner max 10 µM), the Bliss excess in assay [1] is -0.0236; in [2] it was -0.0473; in [3] it was -0.0158; in [4], -0.0113; in assay [5], -0.021; in assay [6] it was 0.0013. Moreover, the Bliss excess is 0.0285 with CAL-78 (Chondrosarcoma); -0.0258 in assay [7]; -0.0073 in the assay with NCI-H2595 (Mesothelioma); -0.0205 with DSH1 (Bladder Carcinoma); -0.0453 in assay [8]; -0.0264 in [9]. Besides, the Bliss excess in the assay on ES7 (Ewing's Sarcoma) was 0.0469; in assay [10], 0.0073; in the assay with NCI-H2369 (Mesothelioma) it was -0.0344; in assay [11], -0.0039; in assay [12], -0.0069; in [13] it was 0.024. The Bliss excess is -0.0581 in the assay with SK-N-FI (Neuroblastoma) and -0.0284 in the assay with SN12C (Kidney Carcinoma).

Regarding `CCc1c2c(nc3ccc(O)cc13)-c1cc3c(c(=O)n1C2)COC(=O)[C@]3(O)CC` [SN-38] + O=C(c1cc(Cc2n[nH]c(=O)c3ccccc23)ccc1F)N1CCN(C(=O)C2CC2)CC1 [Olaparib] (first compound max 0.3 µM, 7x7, partner max 10 µM), the Bliss excess was -0.0008 in assay [1]; 0.0129 in assay [2]; -0.0109 in [3]; 0.0421 in assay [4]; 0.0521 in assay [5]; 0.0787 in assay [6]. In addition, the Bliss excess with NCI-H2595 (Mesothelioma) was 0.0184; with DSH1 (Bladder Carcinoma), 0.0007; in assay [8] it was 0.0102; in [9], -0.0211; in the assay with ES7 (Ewing's Sarcoma), 0.112; in assay [10], 0.0877. The Bliss excess worked out at 0.0128 with NCI-H2369 (Mesothelioma); 0.0041 in assay [11]; 0.0607 in [12]; 0.0478 in the assay on SK-N-FI (Neuroblastoma); 0.0457 in the assay with SN12C (Kidney Carcinoma).

Take `C=CCn1c(=O)c2cnc(Nc3ccc(N4CCN(C)CC4)cc3)nc2n1-c1cccc(C(C)(C)O)n1` [AZD1775] + C1CN(CCC1(C(=O)N[C@@H](CCO)C2=CC=C(C=C2)Cl)N)C3=NC=NC4=C3C=CN4 [Capivasertib] (first compound max 3 µM, partner max 3 µM): the Bliss excess in assay [1] is 0.0135; in assay [2], -0.0053; in assay [3], -0.0075; in assay [4], -0.034; in [5] it was 0.0129; in [6] it was -0.0405. The Bliss excess with CAL-78 (Chondrosarcoma) was -0.0614; in assay [7], -0.034; in the assay on NCI-H2595 (Mesothelioma), -0.0787; in the assay on DSH1 (Bladder Carcinoma) it was 0.0495; in assay [8] it was -0.0818; in assay [9], -0.017. Moreover, the Bliss excess in assay [10] was 0.0337; with NCI-H2369 (Mesothelioma), 0.0035; in [11] it was -0.0262; in assay [12] it was 0.0135; in assay [13], 0.0333; in the assay on SK-N-FI (Neuroblastoma), -0.0442. In addition, the Bliss excess with SN12C (Kidney Carcinoma) was -0.0516.

`COc1nnc2ccc(N3CCC(c4ccc(OCCN5CCN(C)C(=O)[C@H]5C)cc4)CC3)nn12` [AZD5153] + CN(CC[C@H](CSC1=CC=CC=C1)NC2=C(C=C(C=C2)S(=O)(=O)NC(=O)C3=CC=C(C=C3)N4CCC(CC4)[C@H](C5=CC=CC=C5C6=CC=C(C=C6)Cl)O)S(=O)(=O)C(F)(F)F)CCO [AZD4320] (first compound max 1 µM, 7x7, partner max 1 µM): the Bliss excess in assay [2] worked out at 0.0043; in assay [3], 0.0196; in [4], 0.0326; with CAL-78 (Chondrosarcoma), 0.132; in [7], 0.0451; in assay [9], 0.005. Moreover, the Bliss excess was -0.0709 in [10]; -0.0032 with NCI-H2369 (Mesothelioma); 0.0705 in assay [11]; -0.0328 in [12]; -0.0319 in [13].

As for `C[C@@H](c1ccc2nccn2c1)n1nnc2ncc(-c3cnn(C)c3)nc21` [Savolitinib] + CN(CC[C@H](CSC1=CC=CC=C1)NC2=C(C=C(C=C2)S(=O)(=O)NC(=O)C3=CC=C(C=C3)N4CCC(CC4)[C@H](C5=CC=CC=C5C6=CC=C(C=C6)Cl)O)S(=O)(=O)C(F)(F)F)CCO [AZD4320] (first compound max 1 µM, 7x7, partner max 1 µM), the Bliss excess in assay [2] was -0.0126; in assay [3] it was -0.0319; in assay [4], 0.0233; in the assay on CAL-78 (Chondrosarcoma) it was -0.0906; in [7] it was -0.0448; in assay [9] it was 0.0046. The Bliss excess in assay [10] was -0.0412; in the assay with NCI-H2369 (Mesothelioma), -0.0522; in [11] it was -0.0604; in assay [12] it was -0.0545; in assay [13], -0.0267.

Turning to `CC(=O)c1c(C)c2cnc(Nc3ccc(N4CCNCC4)cn3)nc2n(C2CCCC2)c1=O` [Palbociclib] + CN(CC[C@H](CSC1=CC=CC=C1)NC2=C(C=C(C=C2)S(=O)(=O)NC(=O)C3=CC=C(C=C3)N4CCC(CC4)[C@H](C5=CC=CC=C5C6=CC=C(C=C6)Cl)O)S(=O)(=O)C(F)(F)F)CCO [AZD4320] (first compound max 10 µM, 7x7, partner max 1 µM), the Bliss excess in assay [2] was -0.106; in assay [3] it was -0.0883; in assay [4], -0.0727; with CAL-78 (Chondrosarcoma), -0.0873; in assay [7], 0.025; in [9], -0.0937. Also, the Bliss excess in assay [10] was -0.0718; in the assay with NCI-H2369 (Mesothelioma), -0.0408; in assay [11], -0.0358; in assay [12], 0.0056; in [13], -0.0282.

On to `Cc1c2c(nn1C)CSCc1cc(n(C)n1)CSc1cc(c3ccccc3c1)OCCCc1c(C(=O)O)n(C)c3c-2c(Cl)ccc13` [AZD5991] + Cc1cc2ncnn2cc1Nc1ncc2c(n1)n(C1CCOCC1)c(=O)n2C [AZD7648] (first compound max 1 µM, 7x7, partner max 10 µM), for which the Bliss excess was -0.0016 in assay [1]; -0.0113 in assay [2]; -0.0367 in assay [3]; -0.0102 in [4]; -0.0257 in assay [5]; 0.019 in assay [6]. Besides, the Bliss excess with CAL-78 (Chondrosarcoma) was -0.0448; in [7], -0.0085; in the assay with NCI-H2595 (Mesothelioma) it was 0.0034; with DSH1 (Bladder Carcinoma), -0.095; in [8] it was -0.0214; with ES7 (Ewing's Sarcoma), -0.028. For the same compound, the Bliss excess in [10] is -0.0603; with NCI-H2369 (Mesothelioma) it was 0.0018; in [11], -0.0312; in assay [12] it was -0.002; in assay [13] it was 0.0203; in the assay on SK-N-FI (Neuroblastoma) it was -0.0289. Further, the Bliss excess in the assay on SN12C (Kidney Carcinoma) is -0.0335.
